Biological target: Beta-lactamase TEM (Escherichia coli) (UniProt P62593)
Assay: Kd for TEM-1 beta-lactamase

Sequence of Beta-lactamase TEM (Escherichia coli) (P62593 whole entry, looked up): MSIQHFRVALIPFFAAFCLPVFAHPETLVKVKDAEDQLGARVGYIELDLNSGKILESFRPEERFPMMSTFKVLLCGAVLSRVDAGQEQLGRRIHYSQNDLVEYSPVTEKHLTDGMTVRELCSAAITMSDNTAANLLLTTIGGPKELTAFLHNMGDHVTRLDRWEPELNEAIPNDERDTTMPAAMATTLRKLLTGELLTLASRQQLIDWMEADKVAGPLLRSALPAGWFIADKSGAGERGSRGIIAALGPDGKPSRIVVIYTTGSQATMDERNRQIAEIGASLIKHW

Kd: 0.8 µM
Compound: C/C=C1\O[C@@H]2CC(=O)N2[C@H]1C(=O)O [Sodium; (2R,5R)-3-eth-(Z)-ylidene-7-oxo-4-oxa-1-aza-bicyclo[3.2.0]heptane-2-carboxylate]
